Results on one compound are retold here after article PMC10507085, “Pharmacological inhibition of TBK1/IKKε blunts immunopathology in a murine model of SARS-CoV-2 infection” (Nature Communications, 2023).

Among the targets are BMPR1A (Homo sapiens, UniProt P36894); SRPK1 (Homo sapiens, UniProt Q96SB4); ZAP70 (Homo sapiens, UniProt P43403); CDK7 (Homo sapiens, UniProt P50613); CLK1 (Homo sapiens, UniProt P49759); MYLK (Homo sapiens, UniProt Q15746); IKBKE (Homo sapiens, UniProt Q14164); PDPK1 (Homo sapiens, UniProt O15530); PLK1 (Homo sapiens, UniProt P53350); ERBB3 (Homo sapiens, UniProt P21860); MAST1 (Homo sapiens, UniProt Q9Y2H9); STK3 (Homo sapiens, UniProt Q13188); CSK (Homo sapiens, UniProt P41240); DDR1 (Homo sapiens, UniProt Q08345); FLT1 (Homo sapiens, UniProt P17948); CAMKK1 (Homo sapiens, UniProt Q8N5S9); CHEK1 (Homo sapiens, UniProt O14757); CDK4-cyclinD1 (Homo sapiens, UniProt P11802).

Common to all, as to experiment: biochemical
Holding throughout (design): KINOMEscan competition binding, DNA-tagged kinase against immobilised ligand, qPCR read-out
Common to all, as to conditions: read-out: Percent Control

A further test concerns the target T1, ZAK (Homo sapiens, UniProt Q9NYL2).
T1 construct: gene MAP3K20

For test [1], the target named is T2, JAK1(JH2domain-pseudokinase) (Homo sapiens, UniProt P23458).
T2 construct: JH2 domain pseudokinase

Chain of ERBB3 (P21860 whole entry): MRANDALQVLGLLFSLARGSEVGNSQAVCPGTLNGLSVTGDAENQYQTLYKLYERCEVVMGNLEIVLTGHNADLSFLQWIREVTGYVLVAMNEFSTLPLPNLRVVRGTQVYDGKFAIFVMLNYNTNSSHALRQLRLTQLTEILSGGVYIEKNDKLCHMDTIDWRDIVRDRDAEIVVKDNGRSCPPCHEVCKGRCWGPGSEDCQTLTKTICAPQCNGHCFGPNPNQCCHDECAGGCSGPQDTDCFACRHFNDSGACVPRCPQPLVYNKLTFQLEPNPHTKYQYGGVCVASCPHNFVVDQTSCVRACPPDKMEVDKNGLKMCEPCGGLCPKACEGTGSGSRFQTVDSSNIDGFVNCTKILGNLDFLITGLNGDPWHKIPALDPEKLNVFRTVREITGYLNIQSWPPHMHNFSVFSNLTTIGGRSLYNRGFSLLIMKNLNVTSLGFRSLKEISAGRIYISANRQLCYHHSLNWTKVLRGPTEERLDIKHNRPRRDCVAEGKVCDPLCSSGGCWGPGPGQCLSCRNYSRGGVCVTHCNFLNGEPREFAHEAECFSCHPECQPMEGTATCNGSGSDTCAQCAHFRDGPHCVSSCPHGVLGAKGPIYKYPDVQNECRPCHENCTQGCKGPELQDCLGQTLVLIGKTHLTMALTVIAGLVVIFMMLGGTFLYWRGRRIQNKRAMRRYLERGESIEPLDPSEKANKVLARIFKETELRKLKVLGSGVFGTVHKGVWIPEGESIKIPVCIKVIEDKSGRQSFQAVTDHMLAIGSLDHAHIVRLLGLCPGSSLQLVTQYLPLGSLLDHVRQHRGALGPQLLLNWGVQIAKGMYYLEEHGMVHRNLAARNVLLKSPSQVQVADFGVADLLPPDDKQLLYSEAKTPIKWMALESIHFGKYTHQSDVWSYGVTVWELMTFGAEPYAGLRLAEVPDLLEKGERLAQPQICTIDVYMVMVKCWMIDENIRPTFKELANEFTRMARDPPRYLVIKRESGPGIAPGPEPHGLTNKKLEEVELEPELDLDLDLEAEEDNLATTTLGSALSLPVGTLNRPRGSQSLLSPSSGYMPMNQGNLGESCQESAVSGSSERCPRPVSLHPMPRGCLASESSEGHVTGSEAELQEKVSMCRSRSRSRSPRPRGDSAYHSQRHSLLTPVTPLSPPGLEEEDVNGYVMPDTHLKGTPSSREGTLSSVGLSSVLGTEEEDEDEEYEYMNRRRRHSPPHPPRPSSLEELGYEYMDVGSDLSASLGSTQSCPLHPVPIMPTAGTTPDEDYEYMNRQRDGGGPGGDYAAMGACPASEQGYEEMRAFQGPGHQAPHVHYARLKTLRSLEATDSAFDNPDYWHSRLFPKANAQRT
Chain of CDK4-cyclinD1 (P11802 whole entry): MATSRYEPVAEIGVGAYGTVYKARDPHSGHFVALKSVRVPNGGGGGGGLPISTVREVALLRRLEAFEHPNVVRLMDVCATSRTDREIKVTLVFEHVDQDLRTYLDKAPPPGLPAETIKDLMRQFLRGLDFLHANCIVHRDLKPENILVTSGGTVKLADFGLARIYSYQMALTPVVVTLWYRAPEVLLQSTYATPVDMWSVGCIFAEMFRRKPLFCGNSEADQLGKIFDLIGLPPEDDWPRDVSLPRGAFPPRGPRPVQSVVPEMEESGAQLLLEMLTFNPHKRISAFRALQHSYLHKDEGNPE
Chain of CDK4-cyclinD1 (P24385 whole entry partner): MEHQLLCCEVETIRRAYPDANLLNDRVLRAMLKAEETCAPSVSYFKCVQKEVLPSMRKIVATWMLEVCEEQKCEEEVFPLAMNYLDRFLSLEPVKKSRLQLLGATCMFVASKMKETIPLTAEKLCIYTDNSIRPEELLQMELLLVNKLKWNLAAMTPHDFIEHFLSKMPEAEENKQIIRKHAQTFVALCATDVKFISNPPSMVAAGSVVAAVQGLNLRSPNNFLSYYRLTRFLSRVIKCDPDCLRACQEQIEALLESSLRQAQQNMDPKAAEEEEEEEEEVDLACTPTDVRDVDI
Chain of IKBKE (Q14164 whole entry): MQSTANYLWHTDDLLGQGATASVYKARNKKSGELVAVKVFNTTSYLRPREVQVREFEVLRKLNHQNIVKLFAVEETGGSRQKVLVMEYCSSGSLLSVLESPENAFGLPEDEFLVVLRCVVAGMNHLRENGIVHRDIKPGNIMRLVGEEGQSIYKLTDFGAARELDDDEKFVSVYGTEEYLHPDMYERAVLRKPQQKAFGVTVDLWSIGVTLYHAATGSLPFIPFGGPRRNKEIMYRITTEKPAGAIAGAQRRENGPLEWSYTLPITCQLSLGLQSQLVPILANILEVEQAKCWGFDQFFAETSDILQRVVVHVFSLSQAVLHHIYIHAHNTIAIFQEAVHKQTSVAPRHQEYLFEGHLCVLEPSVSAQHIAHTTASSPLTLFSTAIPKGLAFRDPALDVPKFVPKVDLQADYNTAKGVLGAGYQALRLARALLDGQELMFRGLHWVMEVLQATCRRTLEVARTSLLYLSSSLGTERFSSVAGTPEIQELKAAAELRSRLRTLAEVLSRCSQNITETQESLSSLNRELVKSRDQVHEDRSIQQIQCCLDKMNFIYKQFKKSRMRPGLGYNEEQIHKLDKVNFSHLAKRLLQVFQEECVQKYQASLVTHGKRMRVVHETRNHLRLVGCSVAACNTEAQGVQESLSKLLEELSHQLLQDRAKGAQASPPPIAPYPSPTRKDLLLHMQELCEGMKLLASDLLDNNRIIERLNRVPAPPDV
T1 sequence (Q9NYL2 whole entry): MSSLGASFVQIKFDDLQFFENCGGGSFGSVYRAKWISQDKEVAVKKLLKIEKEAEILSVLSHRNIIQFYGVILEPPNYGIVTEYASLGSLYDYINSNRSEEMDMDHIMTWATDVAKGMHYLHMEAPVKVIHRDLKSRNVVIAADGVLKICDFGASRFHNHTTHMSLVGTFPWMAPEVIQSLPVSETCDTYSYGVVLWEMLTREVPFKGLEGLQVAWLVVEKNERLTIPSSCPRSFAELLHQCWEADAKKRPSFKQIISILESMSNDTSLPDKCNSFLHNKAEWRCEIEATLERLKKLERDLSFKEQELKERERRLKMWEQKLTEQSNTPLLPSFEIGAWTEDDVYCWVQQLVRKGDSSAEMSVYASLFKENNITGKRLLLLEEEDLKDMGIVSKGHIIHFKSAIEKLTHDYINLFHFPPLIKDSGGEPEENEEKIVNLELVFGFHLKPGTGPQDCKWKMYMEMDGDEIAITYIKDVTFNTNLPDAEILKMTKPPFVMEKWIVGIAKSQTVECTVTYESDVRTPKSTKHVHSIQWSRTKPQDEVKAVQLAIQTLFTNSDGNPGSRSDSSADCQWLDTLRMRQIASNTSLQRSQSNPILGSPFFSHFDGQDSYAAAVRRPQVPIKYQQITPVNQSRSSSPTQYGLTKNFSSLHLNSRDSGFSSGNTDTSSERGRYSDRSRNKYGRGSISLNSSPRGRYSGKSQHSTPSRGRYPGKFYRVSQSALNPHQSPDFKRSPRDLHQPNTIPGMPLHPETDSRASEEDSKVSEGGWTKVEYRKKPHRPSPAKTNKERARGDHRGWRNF
Chain of PLK1 (P53350 whole entry): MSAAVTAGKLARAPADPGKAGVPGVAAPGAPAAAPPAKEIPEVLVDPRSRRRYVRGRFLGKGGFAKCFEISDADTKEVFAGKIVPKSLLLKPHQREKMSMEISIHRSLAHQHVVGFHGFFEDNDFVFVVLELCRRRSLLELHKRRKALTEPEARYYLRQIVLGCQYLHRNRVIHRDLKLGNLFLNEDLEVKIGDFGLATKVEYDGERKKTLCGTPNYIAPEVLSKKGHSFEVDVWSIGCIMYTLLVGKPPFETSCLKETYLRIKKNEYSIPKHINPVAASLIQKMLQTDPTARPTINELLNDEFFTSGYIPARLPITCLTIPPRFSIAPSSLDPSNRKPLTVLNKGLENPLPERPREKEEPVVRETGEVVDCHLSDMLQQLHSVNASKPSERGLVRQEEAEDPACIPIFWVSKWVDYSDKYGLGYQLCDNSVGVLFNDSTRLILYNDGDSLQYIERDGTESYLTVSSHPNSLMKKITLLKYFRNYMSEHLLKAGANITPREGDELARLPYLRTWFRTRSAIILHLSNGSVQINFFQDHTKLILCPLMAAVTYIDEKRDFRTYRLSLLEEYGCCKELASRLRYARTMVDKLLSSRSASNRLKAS
Chain of CHEK1 (O14757 whole entry): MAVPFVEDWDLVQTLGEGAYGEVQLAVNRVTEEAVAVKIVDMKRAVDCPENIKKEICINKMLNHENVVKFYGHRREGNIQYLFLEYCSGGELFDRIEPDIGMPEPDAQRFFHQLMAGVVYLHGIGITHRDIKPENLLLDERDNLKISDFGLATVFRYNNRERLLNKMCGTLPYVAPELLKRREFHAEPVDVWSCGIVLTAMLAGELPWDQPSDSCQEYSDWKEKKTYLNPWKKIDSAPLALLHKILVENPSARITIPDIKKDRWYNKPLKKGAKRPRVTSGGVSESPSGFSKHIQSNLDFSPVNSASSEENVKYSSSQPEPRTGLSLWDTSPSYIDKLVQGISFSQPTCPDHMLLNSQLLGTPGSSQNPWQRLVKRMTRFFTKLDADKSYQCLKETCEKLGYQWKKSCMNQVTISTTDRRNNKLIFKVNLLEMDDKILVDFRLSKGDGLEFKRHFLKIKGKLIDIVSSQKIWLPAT
Chain of STK3 (Q13188 whole entry): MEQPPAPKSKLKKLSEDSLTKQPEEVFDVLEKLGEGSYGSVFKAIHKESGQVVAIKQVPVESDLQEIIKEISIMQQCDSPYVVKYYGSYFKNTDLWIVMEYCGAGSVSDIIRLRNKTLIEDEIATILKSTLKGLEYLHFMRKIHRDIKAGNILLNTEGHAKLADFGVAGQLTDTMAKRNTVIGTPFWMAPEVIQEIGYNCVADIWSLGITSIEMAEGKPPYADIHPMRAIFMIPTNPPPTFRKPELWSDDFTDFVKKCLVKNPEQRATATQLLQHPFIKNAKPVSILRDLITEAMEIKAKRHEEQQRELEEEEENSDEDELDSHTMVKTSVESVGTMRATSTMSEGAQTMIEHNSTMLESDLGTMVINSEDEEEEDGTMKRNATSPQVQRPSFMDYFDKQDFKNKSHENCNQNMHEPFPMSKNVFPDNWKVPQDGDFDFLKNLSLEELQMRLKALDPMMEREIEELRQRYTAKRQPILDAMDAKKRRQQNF

Take `Oc1ccc(C2=Cc3ccc(O)cc3OC2)cc1` [compound 1, idronoxil]: the remaining binding at 10 µM at BMPR1A was determined as 89%; at SRPK1, 100%; on ZAP70, 78%; at ZAK it was 54%; on CDK7 it was 67%; on CLK1, 53%. In addition, the remaining binding at 10 µM on MYLK was 52%; at IKBKE it was 65%; at PDPK1, 79%; on PLK1, 77%; at ERBB3, 73%; on MAST1, 93%. Also, the remaining binding at 10 µM turned out to be 93% on STK3; 100% at CSK; 90% in test [1]; 87% at DDR1; 100% on FLT1; 78% at CAMKK1. For the same compound, the remaining binding at 10 µM at CHEK1 turned out to be 88%; at CDK4-cyclinD1, 94%.
